According to patent US20040072694A1, “Method to inhibit ethylene responses in plants” (priority 2002, published 2004):

What was measured:
[1] = system: ethylene receptors; experiment: Banana ripening protection from ethylene; assay type: in vivo; conditions: 24 hours of exposure in 3-liter jar, then 333 microliters per liter of ethylene for 12-15 hours; banana peels
Description: Compounds which block the ethylene receptors can prevent bananas from ripening. Treatment of bananas with 30 nl/l of Compound 1 protected banana peels from the effects of ethylene. The bananas were treated using the following general procedure:
An ether solution of a known amount of the active compound was placed on filter paper in a 3-liter jar. The amount of ether used was without effect when applied alone on a banana contained in a 3-liter jar. The jar was sealed and the banana was removed after 24 hours of exposure. The banana was then treated with 333 microliters per liter of ethylene in a 3-liter jar for 12-15 hours. It was then observed for ripening. The minimum concentration that protected the banana was determined.

[2] = system: Patio variety tomato seedlings; experiment: Tomato Epinasty Test, volatile gas treatment; assay type: in vivo; conditions: applied as a gas at 1000 ppm; ethylene 10 ppm v/v after four hours, scored sixteen hours later
Description: Objective: The test procedure is designed to determine the ability of an experimental compound to block the epinastic growth response induced by ethylene in tomato plants when the experimental compound is administered either as a volatile gas or as a component of a spray solution. Treatment chambers are of an appropriate size for the test plants and are airtight. Each is fitted with a reusable septum to be used for injection of ethylene. Test plants are Patio variety tomato seedlings planted two plants per three inch square plastic pot. Volatile gas treatment entails placing two pots of Patio var. tomatoes into a polystyrene 4.8L volume treatment chamber along with one-half (upper or lower section) of a 50×9 mm plastic Petri dish containing a Gelman filter pad. The appropriate amount of experimental compound, dissolved in 1.0 ml acetone, is pipetted onto the filter pad and the chamber immediately sealed. Four hours later ethylene gas equal to 10 ppm v/v final concentration is injected into the sealed chamber. Sixteen hours later the chambers are opened in an exhaust hood, allowed to air and the plants scored visually for the degree of protection against ethylene-induced epinasty conferred by the experimental compound when compared to ethylene treated and untreated controls on a scale of 0 to 10. A rating of 10 means complete protection. […]

minimum concentration that protected the banana [1] [nl/l] | SMILES | rating of protection against ethylene-induced epinasty (scale of 0 to 10; 10 means complete protection) [2]
30 | OCC1=CC1 [Compound 1, 1-Hydroxymethylcyclopropene] | 
 | OCCC1=CC1 [Compound 2, 1-(2-Hydroxyethyl)-cyclopropene] | 10
